{
  "source": "patent US7939541B2",
  "about": "“Intermediates and a process employing the intermediates for the preparation of (3-trifluoromethylsulfonyl)-N-[4-methyl-3-(4-pyridin-3yl-pyrimidin-2ylamino)-phenyl]-benzamide” (Natco Pharma Limited, priority 2004, dated 2011)",
  "key": {"[1]": {"tested_on": "BCR-Abl, Crk and phospho Stat5AY^694/699 in K562 cells", "assay": "Western blot analysis of K562 cells treated with AN024", "type": "cell-based, human", "method": "Expression levels of BCR-Abl, Crk and phospho Stat5AY^694/699 were determined by western blot analysis in K562 cells treated with various concentrations of AN024 (1, 2.5, 5 or 10 μg/ml) for 12 h.\nK562 cells were treated with 1, 2.5, 5, or 10 μg/ml of AN024. After 12 h, cells were collected and total cell lysates were prepared in extraction buffer containing Tris [0.1 M, pH 7.5], Triton-X114 (1.0%), EDTA (10 mM), aprotinin, and phenylmethylsulphonyl fluoride. […] The membranes were probed for 2 h with antibodies against BCR-Abl, Crk and phospho Stat5AY^694/699 per standard protocols. The membranes were subsequently washed three times with PBS to remove excess primary antibodies, incubated with appropriate HRP conjugated secondary antibodies as required, and then developed according to enhanced chemiluminesence protocol (Amersham, Arlington Heights, Ill.).\nFIG. 1 illustrates results of this testing. K562 cells were treated with various concentrations of AN024 (1-10 μg/ml). Cell lysates were collected and western blot analysis was performed per standard protocols. Expression levels of BCR-Abl, Crk and Stat5AY^694/699 were determined."}, "K562 cells": {"tested_on": "K562 cells", "assay": "Nude mice implanted with K562 cells: spleenic enlargement, Crk expression, leukemia growth index", "type": "in vivo", "source_text": "Mice were sacrificed after a decrease in percent leukemia growth index (LGI) was observed and spleen harvested.\nControl mice also developed random subcutaneous tumors showing Crk expression, indicative of the presence of K562 cells."}, "[2]": {"tested_on": "Baf3 murine leukemia cells T315I", "assay": "Blast cell count in nude mice implanted with Baf3 T315I cells", "type": "in vivo", "details": "Baf3T315I; Imatinib 10 mg/kg, AN019 20 mg/kg, AN024 20 mg/kg, oral gavage or ip from day 15; day 42", "source_text": "(§1) Blood smears were obtained via the tail vein or via the femoral vein every 6th day and blast cells counted and graphically represented.\n(§2) Abdominal swelling and decrease in activity was monitored daily, blood smear taken via the tail vein or the femoral vein every 6th day and H&E stained as per standard protocols. 42 days after implantation, mice were sacrificed and spleens harvested.\n(§3) Blood from tail vein or the femoral vein was taken every 6th day from Baf3 cell implanted mice until day 42.\n(§4) Nude mice were intraperitoneally implanted with Baf3 mutant cells (wt, T315I, M351T or E255K). […] Blood was drawn from the femoral vein or tail vein every 6th day and blast cell count determined and graphically represented."}, "[3]": {"tested_on": "Baf3 murine leukemia cells M351T", "assay": "Blast cell count in nude mice implanted with Baf3 M351T cells", "type": "in vivo", "details": "Baf3M351T; Imatinib 10 mg/kg, AN019 20 mg/kg, AN024 20 mg/kg, oral gavage or ip from day 15; day 42", "source_text": "as §1, §2, §3, §4"}, "K562luc cells": {"tested_on": "K562luc cells", "assay": "Determination of drug temporal penetrance (Tp)", "type": "in vivo, nude mice", "details": "daily ip from day 15 to day 35, imaged till day 45; AN019 20 mg/kg, AN024 20 mg/kg, Imatinib 10 mg/kg", "method": "The temporal penetrance was calculated applying the following equation, […].\nP=photon counts at day ‘a’, day ‘ter’, or day ‘b’ where ‘a’ is the day when drug treatment was stopped and ‘ter’ is the day when the experiment was terminated and ‘b’ is the day where P is minimum after day a but before day ‘ter’.\nn=number of animals alive when P was measured.\nThe animals were imaged at 6 day intervals post transplantation. […] Drug treatment was stopped on day 35 and animals were imaged till day 45, and calculated as described in methods."}, "ZR71 breast cancer cells": {"tested_on": "ZR71 breast cancer cells", "assay": "In vitro angiogenic assay, ZR-71 conditioned media on human dermal endothelial cells", "type": "cell-based", "details": "ZR-71 cells, radiation status not specified", "method": "(§5) The in vitro angiogenesis of 4910, 5310 and U87 glioma cells and MDAMB231 and ZR71 breast cancer cells in the presence of specified concentrations of compounds were determined as follows, cells (2×10^4/well) were seeded in 8-well chamber slides and were treated with various concentrations of test compounds. After a 24 h incubation period, the conditioned media was removed and added to a 4×10^4 human dermal endothelial cell (monolayer in 8-well chamber slides) and the human dermal endothelial cells were allowed to grow for 72 h. Cells were then fixed in 3.7% formaldehyde and stained with H&E and photographed."}, "[4]": {"tested_on": "MDAMB231 breast cancer cells", "assay": "In vitro angiogenic assay, MDA-MB-231 conditioned media on human dermal endothelial cells", "type": "cell-based", "details": "MDA-MB-231 cells, with radiation", "method": "as §5"}, "4910 glioma cells": {"tested_on": "4910 glioma cells", "assay": "In vitro angiogenic assay, 4910 conditioned media on human dermal endothelial cells", "type": "cell-based", "details": "4910 cells, with radiation", "method": "as §5"}, "U87 glioma cells": {"tested_on": "U87 glioma cells", "assay": "In vitro angiogenic assay, U87 conditioned media on human dermal endothelial cells", "type": "cell-based", "details": "with radiation", "method": "as §5"}, "[5]": {"tested_on": "AKT, ERK and Pi3k in ZR71 breast cancer cells", "assay": "Western blot analysis, ZR71", "type": "cell-based", "details": "24 h", "method": "(§6) Western blot analysis of 4910, 5310 and U87 glioma cells and MDAMB231 and ZR71 breast cancer cells in the presence of specified concentrations of compounds were assessed as per standard protocols. Cells were treated with AN019, AN024 or Temozolomide at the specified concentrations. 24 h after treatment, cells were collected and cell lysates extracted. Equal quantities of proteins were fractionated by SDS-PAGE. The fractionated proteins were blotted on to nylon membranes and immunoprobed for AKT, ERK and Pi3k. Breast cancer cell protein isolates were additionally immunoprobed for EGFR, ErbB1, ErbB2 and ErbB3."}, "[6]": {"tested_on": "AKT, ERK and Pi3k in 4910 glioma cells", "assay": "Western blot analysis, 4910", "type": "cell-based, human", "details": "24 h", "method": "as §6"}, "[7]": {"tested_on": "AKT, ERK and Pi3k in U87 glioma cells", "assay": "Western blot analysis, U87", "type": "cell-based", "details": "24 h", "method": "as §6"}, "[8]": {"tested_on": "pAKT and pERK in glioma and breast cancer cells", "assay": "Western blot analysis of pAKT and pERK, cell line not stated", "type": "cell-based", "details": "both with and without radiation", "method": "as §6"}, "K562": {"tested_on": "K562", "assay": "ED50 and therapeutic index in leukemic mice (K562)", "type": "in vivo", "details": "Mus musculus, K562, po, read-out: ED50 (po) Mice"}, "[9]": {"tested_on": "4910 human glioma xenograft cells", "assay": "Glioma radiation studies, intracranial tumours", "type": "in vivo, nude mice", "method": "Nude mice were intracranially implanted with 4910 human glioma xenograft cells (1×10^6 cells) intracranially. Ten days after implantation mice were treated with AN019, AN024 or temozolomide with or without radiation (5 Gy/week). The experiment was terminated at day 40 post implantation."}, "in vivo": {"assay": "in vivo", "details": "mouse"}},
  "data": [
    {"smiles": "Cc1ccc(NC(=O)c2cccc(S(=O)(=O)C(F)(F)F)c2)cc1Nc1nccc(-c2cccnc2)n1", "note": "[AN024, (3-trifluoromethylsulfonyl)-N-[4-methyl-3-(4-pyridin-3yl-pyrimidin-2ylamino)-phenyl]-benzamide]", "values": [
      {"measurement": "BCR-Abl, Crk and phospho Stat5AY^694/699 protein levels", "setting": "[1]; K562 cells, 1, 2.5, 5 or 10 μg/ml, 12 h, western blot", "result": "decreased in a dose dependent manner"},
      {"measurement": "BCR-Abl kinase activity", "setting": "[1]; K562 cells, 1-10 μg/ml", "result": "inhibited BCR-Abl kinase activity in a dose dependent manner"},
      {"measurement": "leukemia growth index (LGI)", "setting": "K562 cells; K562 implanted nude mice", "result": "caused the regression of LGI"},
      {"measurement": "Crk expression in paraffin sections of spleen", "setting": "K562 cells; immuno-probed spleen sections", "result": "only basal level expression of Crk expression comparable to negative control"},
      {"measurement": "Spleenic enlargement", "setting": "K562 cells; ip injections, visual inspection of harvested spleen", "result": "did not show any spleenic enlargement"},
      {"measurement": "physiological, phenotypic or behavioral abnormality", "setting": "K562 cells; treated K562 implanted nude mice", "result": "no abnormal physiological, phenotypic or behavioral abnormality"},
      {"measurement": "blast cell count in blood smears", "setting": "[2]", "result": "significant decrease in blast cell count"},
      {"measurement": "blast cell count in blood smears", "setting": "[3]", "result": "significant decrease in blast cell count"},
      {"measurement": "temporal penetrance (Tp)", "setting": "K562luc cells", "result": 2.4},
      {"measurement": "inhibition of angiogenesis", "setting": "ZR71 breast cancer cells", "result": "complete inhibition of angiogenesis"},
      {"measurement": "inhibition of angiogenesis", "setting": "[4]", "result": "only a slight inhibition"},
      {"measurement": "inhibition of angiogenesis", "setting": "4910 glioma cells", "result": "significant inhibition of angiogenesis"},
      {"measurement": "inhibition of angiogenesis", "setting": "U87 glioma cells", "result": "increase in inhibition after radiation"},
      {"measurement": "AKT levels", "setting": "[5]; ZR71, after radiation", "result": "decrease in AKT expression"},
      {"measurement": "PI3k levels", "setting": "[5]; ZR71, with radiation", "result": "decrease in PI3k levels"},
      {"measurement": "AKT levels", "setting": "[5]; ZR71, without radiation", "result": "did not show any significant change"},
      {"measurement": "AKT levels", "setting": "[6]; 4910, after radiation", "result": "decrease in AKT levels was enhanced after radiation"},
      {"measurement": "AKT levels", "setting": "[6]; 4910, without radiation", "result": "decrease in AKT levels"},
      {"measurement": "ERK levels", "setting": "[7]; U87, after radiation", "result": "decrease was enhanced after radiation"},
      {"measurement": "ERK levels", "setting": "[7]; U87, without radiation", "result": "slight decrease in ERK levels"},
      {"measurement": "pERK levels", "setting": "[8]", "result": "reduction on pERK levels but to a lesser extent than AN019"},
      {"measurement": "ED50", "setting": "K562", "result": 10, "unit": "mg/kg"},
      {"measurement": "intracranial tumours (size, appearance)", "setting": "[9]; with radiation (5 Gy/week)", "result": "well defined surgically respectable tumours"},
      {"measurement": "intracranial tumours (size, appearance)", "setting": "[9]; without radiation", "result": "well defined and not showing diffuse edges"},
      {"measurement": "MTD", "setting": "in vivo", "result": 500, "unit": "mg/kg"},
      {"measurement": "LD50", "setting": "in vivo; po", "result": 1440, "unit": "mg/kg"}
    ]}
  ]
}
